Experimental data taken from the supplement of paper PMC6045584.
± gives the standard deviation of the averaged measurements.

Each test system was assayed with O=C(O)C1(C(=O)O)CCC1.[NH2-].[NH2-].[Pt+2] [CARBOPLATIN] (assay: surviving fraction relative to DMSO-only wells; higher = less growth inhibition). Conditions: 0.5 nM; exposure time: 5 days.
Procedure, shortened: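 Five days of continuous inhibitor exposure, at 0.5, 1, 5, 10, 50, 100, 500 and 1000 nM, followed a 24-hour period after log-phase tumour cell lines were seeded at 250–500 cells per well in 384-well plates. Surviving fraction was derived from CellTiter-Glo luminescence relative to the median of DMSO-only wells. Plates were read after 10 minutes at room temperature, and lines screened three times were kept only if replicate Pearson r >0.7 and median Z' >0.3.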

Point of comparison: SJSA1 BONE, surviving fraction 1.68 ± 0.11. Against it:
- MFM223 BREAST — lower, 1.22 ± 0.071
- MG63 BONE — lower, 1.08 ± 0.043
- MHM BONE — lower, 1.01 ± 0.027
- NCIH441 LUNG — lower, 1.08 ± 0.027
- NOS1 BONE — lower, 1.22 ± 0.2
- NY BONE — lower, 1.03 ± 0.02
- OS25HAL BONE — lower, 1.09 ± 0.045
- OSHN BONE — lower, 1.091 ± 0.0051
- RDES SOFT TISSUE — lower, 1.23 ± 0.035
- SCC47 HEADNECK — lower, 1.21 ± 0.072
- SCC90 HEADNECK — lower, 1.02 ± 0.023
- SG27 HEADNECK — lower, 1.13 ± 0.014
- SG28 HEADNECK — lower, 1.23 ± 0.042
- SG31 HEADNECK — lower, 1.15 ± 0.14
- SG32 HEADNECK — lower, 1.12 ± 0.12
- SG43 HEADNECK — lower, 1.14 ± 0.14
- SIHA CERVIX — lower, 1.14 ± 0.065
- SKBR3 BREAST — lower, 1.01 ± 0.098
- SNU475 LIVER — lower, 1.04 ± 0.088
- SUM44 BREAST — lower, 1.15 ± 0.28
- SUM149.B1*.S BREAST — lower, 1.15 ± 0.096
- SUM159 BREAST — lower, 1.12 ± 0.024
- SYO1 SYNOVIAL — lower, 1.04 ± 0.028
- T47D BREAST — lower, 1.02 ± 0.049
- U2OS BONE — lower, 1.04 ± 0.044
- VCAP PROSTATE — lower, 1.04 ± 0.067
- VP229 BREAST — lower, 1.12 ± 0.14
- YAMATO SYNOVIAL — lower, 1.17 ± 0.066
- ZR751 BREAST — lower, 1.16 ± 0.2

Same assay, conditions: 1 nM; exposure time: 5 days

Point of comparison: SNU475 LIVER, surviving fraction 1.06 ± 0.038. Against it:
- MFM223 BREAST — within error, 1.22 ± 0.18
- MG63 BONE — within error, 1 ± 0.023
- MHM BONE — within error, 1.02 ± 0.025
- NCIH441 LUNG — within error, 1.12 ± 0.063
- NOS1 BONE — within error, 1.08 ± 0.076
- NY BONE — lower, 0.9813 ± 0.0058
- OS25HAL BONE — within error, 1.03 ± 0.019
- OSHN BONE — the same, 1.06 ± 0.022
- RDES SOFT TISSUE — within error, 0.987 ± 0.091
- SCC47 HEADNECK — higher, 1.17 ± 0.042
- SCC90 HEADNECK — within error, 1.04 ± 0.034
- SG27 HEADNECK — within error, 1.05 ± 0.017
- SG28 HEADNECK — higher, 1.1
- SG31 HEADNECK — higher, 1.21 ± 0.11
- SG32 HEADNECK — within error, 1.07 ± 0.17
- SG43 HEADNECK — within error, 1.13 ± 0.3
- SIHA CERVIX — higher, 1.18 ± 0.038
- SJSA1 BONE — higher, 1.73 ± 0.089
- SKBR3 BREAST — the same, 1.06 ± 0.1
- SUM44 BREAST — within error, 1.05 ± 0.14
- SUM149.B1*.S BREAST — within error, 1.11 ± 0.02
- SUM159 BREAST — within error, 1.1 ± 0.02
- SYO1 SYNOVIAL — lower, 0.986 ± 0.023
- T47D BREAST — within error, 1.04 ± 0.04
- U2OS BONE — within error, 1.05 ± 0.046
- VCAP PROSTATE — within error, 0.996 ± 0.04
- VP229 BREAST — within error, 1.05 ± 0.022
- YAMATO SYNOVIAL — higher, 1.33 ± 0.069
- ZR751 BREAST — higher, 1.23 ± 0.071

Same assay, conditions: 5 nM; exposure time: 5 days

Point of comparison: SIHA CERVIX, surviving fraction 1.13 ± 0.088. Against it:
- MFM223 BREAST — within error, 1.22 ± 0.18
- MG63 BONE — within error, 1.08 ± 0.031
- MHM BONE — within error, 1.08 ± 0.044
- NCIH441 LUNG — within error, 1.08 ± 0.049
- NOS1 BONE — within error, 1.31 ± 0.13
- NY BONE — within error, 1.08 ± 0.019
- OS25HAL BONE — lower, 0.994 ± 0.034
- OSHN BONE — within error, 1.09 ± 0.035
- RDES SOFT TISSUE — within error, 1.14 ± 0.1
- SCC47 HEADNECK — within error, 1.19 ± 0.017
- SCC90 HEADNECK — within error, 1.12 ± 0.18
- SG27 HEADNECK — within error, 1.12 ± 0.1
- SG28 HEADNECK — within error, 1.07 ± 0.065
- SG31 HEADNECK — within error, 0.963 ± 0.12
- SG32 HEADNECK — within error, 1.15 ± 0.17
- SG43 HEADNECK — within error, 0.915 ± 0.18
- SJSA1 BONE — higher, 1.56 ± 0.12
- SKBR3 BREAST — within error, 1.06 ± 0.11
- SNU475 LIVER — within error, 1.07 ± 0.041
- SUM44 BREAST — within error, 1.16 ± 0.23
- SUM149.B1*.S BREAST — within error, 1.12 ± 0.07
- SUM159 BREAST — within error, 1.1 ± 0.016
- SYO1 SYNOVIAL — within error, 1.06 ± 0.027
- T47D BREAST — within error, 1.04 ± 0.083
- U2OS BONE — within error, 1.07 ± 0.033
- VCAP PROSTATE — within error, 1.11 ± 0.072
- VP229 BREAST — within error, 1.11 ± 0.12
- YAMATO SYNOVIAL — higher, 1.34 ± 0.11
- ZR751 BREAST — within error, 1.14 ± 0.13

Same assay, conditions: 10 nM; exposure time: 5 days

Point of comparison: VCAP PROSTATE, surviving fraction 1.09 ± 0.11. Against it:
- MFM223 BREAST — within error, 1.15 ± 0.18
- MG63 BONE — within error, 1.07 ± 0.045
- MHM BONE — within error, 1.06 ± 0.058
- NCIH441 LUNG — within error, 1.13 ± 0.093
- NOS1 BONE — within error, 1.25 ± 0.1
- NY BONE — within error, 1.03 ± 0.024
- OS25HAL BONE — within error, 1.03 ± 0.019
- OSHN BONE — within error, 1.05 ± 0.044
- RDES SOFT TISSUE — within error, 1.11 ± 0.083
- SCC47 HEADNECK — within error, 1.19 ± 0.071
- SCC90 HEADNECK — within error, 1.11 ± 0.034
- SG27 HEADNECK — within error, 1.04 ± 0.038
- SG28 HEADNECK — lower, 0.97 ± 0.0014
- SG31 HEADNECK — within error, 1.12 ± 0.24
- SG32 HEADNECK — within error, 1.17 ± 0.051
- SG43 HEADNECK — within error, 1.15 ± 0.23
- SIHA CERVIX — within error, 1.21 ± 0.094
- SJSA1 BONE — higher, 1.64 ± 0.17
- SKBR3 BREAST — within error, 0.987 ± 0.2
- SNU475 LIVER — within error, 1.05 ± 0.037
- SUM44 BREAST — within error, 1.01 ± 0.2
- SUM149.B1*.S BREAST — within error, 1.07 ± 0.025
- SUM159 BREAST — the same, 1.09 ± 0.024
- SYO1 SYNOVIAL — within error, 0.9793 ± 0.0044
- T47D BREAST — within error, 1.01 ± 0.019
- U2OS BONE — within error, 1.1 ± 0.028
- VP229 BREAST — within error, 0.961 ± 0.088
- YAMATO SYNOVIAL — higher, 1.31 ± 0.051
- ZR751 BREAST — within error, 1.18 ± 0.23
